A short description of series [1]: ET-1 degradation rate in mouse blood and tissues (ELISA). The class given is in vivo. The conditions noted are these: tail vein injection, at least 5 mice. Here is the method: To determine the ET-1 degradation rate we injected mice in the tail vein with an ET-1 solution in saline at a dose of […]. Fifteen minutes after injection mice were sacrificed and their lungs and aorta as well as blood were collected to measure the concentration of ET-1 by ELISA. Endogenous levels of ET-1 were measured in the animals injected with saline.
Figure 6 Mice with combined CathA/Scpep1 deficiency have reduced ET-1 degradation rate. Blood plasma, lungs and aorta were collected from WT, Scpep1 ^−/−, CathA^S190A and DD mice 15 min post an intravenous injection of saline or ET-1 in saline (10 nmol/kg BW). The levels of ET-1 peptide were measured by ELISA in lung extracts (A), aorta extracts (B), and in blood plasma extracts (C) from mice injected with ET-1 and blood plasma extracts from mice injected with saline (D). Data are expressed as mean values (±S.E). At least 5 mice were studied for each genotype. * p<0.05 in Welch's modification of two-tailed unpaired t-test. […]
For peptide extraction, tissues (200 mg) were homogenized in 1 mol/L CH3COOH/20 mM HCl. […] Quantitative assay of ET-1 was performed with an ELISA kit (Enzo Life Sciences ADI-900-020A) as described by the manufacturer.

Series [2] has as its system homogenates of cultured AVSMC. The series can be described thus: Carboxypeptidase activity against ET-1 in homogenates of cultured AVSMC. The format is biochemical, mouse. The conditions noted are these: 50 µM ET-1. From the text: Figure 1 Scpep1 has carboxypeptidase activity against ET-1. A. Carboxypeptidase activity against ET-1 in homogenates of cultured AVSMC from WT, Scpep1 ^−/−, CathA^S190A and Scpep1 ^−/− /CathA^S190A mice as well as from the cells of Scpep1 ^−/− /CathA^S190A mice transiently transfected with pCMV-GFP and pCMV-Scpep1 plasmids. AVSMC after the passage 3 were transfected or not with Scpep1-RGS-His-Tag and pEGFP-C1 plasmids. Forty-eight hours after transfection confluent cells were harvested, homogenized and tested for carboxypeptidase activity using 50 µM ET-1 as a substrate. Data are expressed as means (±S.D.) of 3 independent experiments performed with different cell cultures. * p<0.05 and ** p<0.01 in two-tailed unpaired t-test. B. Carboxypeptidase activity against ET-1 in homogenates of cultured AVSMC from WT mice transfected with Scpep1 and CathA shRNA. AVSMC after the passage 3 were transfected with pRFP-C-RS vectors expressing shRNA for mouse CathA and Scpep1 or non-effective 29-mer scrambled shRNA as indicated. Seventy-two hours after transfection the cells were harvested, and those expressing plasmids enriched by cell-sorting, homogenized and tested for carboxypeptidase activity using 50 µM ET-1 as a substrate. […] C. Carboxypeptidase activity against ET-1 of purified recombinant Scpep1. Scpep1 carrying a His6 tag at the C-terminus was expressed in stably transfected HT1080 cells and purified by affinity chromatography on Ni-NTA resin followed by anion-exchange chromatography as described. Carboxypeptidase activity was assayed with 50 µM ET-1 as a substrate and 0.4–0.8 µg of the purified enzyme in the reaction mixture in 50 mM sodium phosphate/50 mM sodium acetate buffer at pH 5.5, 6.5 and 7.5. Bars show mean values (±S.D.) of 3 independent experiments. […] The amino acid analysis of the reaction mixture determined that Scpep1 cleaves the C-terminal amino acid (Trp21) from ET-1 (not shown). […]
Carboxypeptidase activity in cultured AVSMC was measured against 50 µM ET-1 as previously described using the method measuring the liberation rate of the C-terminal amino acid of the peptide. […]

Turning to endothelin-1 [ET-1], the “ET-1 concentration 15 min after injection versus WT or Scpep1-deficient animals” value in series [1] (lungs and aorta of CathA-deficient mice) is listed as “higher”. Also, the “ET-1 concentration 15 min after injection versus WT, CathA-deficient or Scpep1-deficient mice” value in series [1] (tissues or plasma of DD mice, dose printed 0.1 nmol/kg BW) is given as “significantly higher”. Also, the “carboxypeptidase activity against ET-1” value in series [2] (AVSMC of CathA^S190A mice, sodium acetate buffer pH 5.4, 30–180 min at 37°C, 3 independent experiments) is ~10%; in series [2] (CathA^S190A/Scpep1^−/− mice, pH 5.4, 37°C) it was ~6%; in series [2] (Scpep1^−/− mice, relative to WT, pH 5.4, 37°C), ~70%.

(Values after article PMC3937211, “Serine Carboxypeptidase SCPEP1 and Cathepsin A Play Complementary Roles in Regulation of Vasoconstriction via Inactivation of Endothelin-1” (PLoS Genetics, 2014).)
